“And” between values parts separate entries of the source, which are not always exact repeats. Identical values can stand only once.
Test system: N. gonorrhoeae
Test: N. gonorrhoeae murine vaginal infection model, efficacy
Assay type: in vivo, mouse
Conditions: BID
Procedure: The N. gonorrhoeae female mouse vaginal model[45] was performed in accordance with the Guide for Care and Use of Laboratory Animals[75]. Animal rooms were maintained at a temperature range of 20–24 °C and humidity between 30% and 70%, with 12 h light/dark cycles. Ovariectomized BALB/c female mice (5–6 weeks, BioLASCO Taiwan Co., Ltd.) were treated with estradiol (0.23 mg/mouse) two days before infection and on the day of infection. Ovariectomized mice were used to avoid staging mice before treating them with estradiol. Beginning two days prior to infection and maintained until the end of the study, animals were treated twice daily with streptomycin (1.2 mg/mouse) and vancomycin (0.6 mg/mouse) each via intraperitoneal (IP) injection and received trimethoprim sulfate in the drinking water (0.4 mg/mL) to control vaginal microflora. Animals were anesthetised with pentobarbital (80 mg/kg), the vagina was rinsed with 50 mM HEPES (pH 7.4), and then inoculated with N. gonorrhoeae in pre-warmed PBS (0.02 mL/mouse containing ~1 × 10^5 CFU).
Control groups received either a single IP injection of ceftriaxone or 5% dextrose (vehicle) twice daily. Animals were sacrificed via CO2 asphyxiation at either 2 h (baseline), 26 and/or 50 h post-infection. Vaginal lavage was performed twice with 200 µL GC broth containing 0.05% saponin to recover bacteria. Bacterial burden in the lavage fluids was determined by performing 10-fold serial dilutions and plating on chocolate agar plates. Four strains were assessed using the model; ATCC 700825 is naturally streptomycin-resistant, whereas AR Bank0179-15, AR Bank0181-17 and WHO X-07 are derivatives of AR Bank0179, AR Bank0181 and WHO X, respectively, that were engineered for streptomycin resistance for use in the model.

[1] = Data 4, N. gonorrhoeae WHO X-07, ovariectomized BALB/c, 20 mg/kg PO, 24h, individual animals, 20 mg/kg
[2] = Data 4, N. gonorrhoeae WHO X-07, ovariectomized BALB/c, 20 mg/kg PO, 48h, individual animals, 20 mg/kg
[3] = Data 4, N. gonorrhoeae WHO X-07, ovariectomized BALB/c, 30 mg/kg PO, 24h, individual animals, 30 mg/kg
[4] = Data 4, N. gonorrhoeae WHO X-07, ovariectomized BALB/c, 30 mg/kg PO, 48h, individual animals, 30 mg/kg
[5] = Data 4, N. gonorrhoeae WHO X-07, ovariectomized BALB/c, 40 mg/kg PO, 24h, individual animals, 40 mg/kg
[6] = Data 4, N. gonorrhoeae WHO X-07, ovariectomized BALB/c, 40 mg/kg PO, 48h, individual animals, 40 mg/kg
[7] = Data 4, N. gonorrhoeae WHO X-07, ovariectomized BALB/c, 80 mg/kg PO, 24h, individual animals, 80 mg/kg
[8] = Data 4, N. gonorrhoeae WHO X-07, ovariectomized BALB/c, 80 mg/kg PO, 48h, individual animals, 80 mg/kg
[9] = Data 4, N. gonorrhoeae WHO X-07, ovariectomized BALB/c, 160 mg/kg PO, 24h, individual animals, 160 mg/kg
[10] = Data 4, N. gonorrhoeae WHO X-07, ovariectomized BALB/c, 160 mg/kg PO, 48h, individual animals
[11] = N. gonorrhoeae AR Bank0179-15, vaginal lavage, individual mice, Debio 1453P 10 mg/kg PO, 24h
[12] = N. gonorrhoeae AR Bank0179-15, vaginal lavage, individual mice, Debio 1453P 10 mg/kg PO, 48h
[13] = N. gonorrhoeae AR Bank0179-15, vaginal lavage, individual mice, Debio 1453P 20 mg/kg PO, 24h

SMILES: Cc1c(CN(C)C(=O)/C=C/c2cnc3c(c2)N[C@H](C)[C@H](OP(=O)([O-])[O-])C(=O)N3)oc2ccccc12.[Na+].[Na+] [Debio 1453 P]
- CFU/mL lavage fluid [1]: 780000 CFU/mL lavage fluid and 510000 CFU/mL lavage fluid and 2110000 CFU/mL lavage fluid and 820000 CFU/mL lavage fluid and 1010000 CFU/mL lavage fluid
- Log10(CFU/mL lavage fluid) [1]: 5.89 Log10(CFU/mL lavage fluid) and 5.71 Log10(CFU/mL lavage fluid) and 6.32 Log10(CFU/mL lavage fluid) and 5.91 Log10(CFU/mL lavage fluid) and 6.00 Log10(CFU/mL lavage fluid)
- CFU/mL lavage fluid [2]: 2660000 CFU/mL lavage fluid and 620000 CFU/mL lavage fluid and 3200000 CFU/mL lavage fluid and 920000 CFU/mL lavage fluid and 870000 CFU/mL lavage fluid
- Log10(CFU/mL lavage fluid) [2]: 6.42 Log10(CFU/mL lavage fluid) and 5.79 Log10(CFU/mL lavage fluid) and 6.51 Log10(CFU/mL lavage fluid) and 5.96 Log10(CFU/mL lavage fluid) and 5.94 Log10(CFU/mL lavage fluid)
- CFU/mL lavage fluid [3]: 740000 CFU/mL lavage fluid and 760000 CFU/mL lavage fluid and 840000 CFU/mL lavage fluid and 440000 CFU/mL lavage fluid and 700000 CFU/mL lavage fluid
- Log10(CFU/mL lavage fluid) [3]: 5.87 Log10(CFU/mL lavage fluid) and 5.88 Log10(CFU/mL lavage fluid) and 5.92 Log10(CFU/mL lavage fluid) and 5.64 Log10(CFU/mL lavage fluid) and 5.85 Log10(CFU/mL lavage fluid)
- CFU/mL lavage fluid [4]: 790000 CFU/mL lavage fluid and 1090000 CFU/mL lavage fluid and 46000 CFU/mL lavage fluid and 550000 CFU/mL lavage fluid and 1250000 CFU/mL lavage fluid
- Log10(CFU/mL lavage fluid) [4]: 5.90 Log10(CFU/mL lavage fluid) and 6.04 Log10(CFU/mL lavage fluid) and 4.66 Log10(CFU/mL lavage fluid) and 5.74 Log10(CFU/mL lavage fluid) and 6.10 Log10(CFU/mL lavage fluid)
- CFU/mL lavage fluid [5]: 2240000 CFU/mL lavage fluid and 380000 CFU/mL lavage fluid and 92000 CFU/mL lavage fluid and 77000 CFU/mL lavage fluid and 610000 CFU/mL lavage fluid
- Log10(CFU/mL lavage fluid) [5]: 6.35 Log10(CFU/mL lavage fluid) and 5.58 Log10(CFU/mL lavage fluid) and 4.96 Log10(CFU/mL lavage fluid) and 4.89 Log10(CFU/mL lavage fluid) and 5.79 Log10(CFU/mL lavage fluid)
- CFU/mL lavage fluid [6]: 123000 CFU/mL lavage fluid and 55000 CFU/mL lavage fluid and 380000 CFU/mL lavage fluid and 85000 CFU/mL lavage fluid and 1000000 CFU/mL lavage fluid
- Log10(CFU/mL lavage fluid) [6]: 5.09 Log10(CFU/mL lavage fluid) and 4.74 Log10(CFU/mL lavage fluid) and 5.58 Log10(CFU/mL lavage fluid) and 4.93 Log10(CFU/mL lavage fluid) and 6.00 Log10(CFU/mL lavage fluid)
- CFU/mL lavage fluid [7]: 5 CFU/mL lavage fluid and 295 CFU/mL lavage fluid and 380 CFU/mL lavage fluid and 10 CFU/mL lavage fluid
- Log10(CFU/mL lavage fluid) [7]: 0.70 Log10(CFU/mL lavage fluid) and 2.47 Log10(CFU/mL lavage fluid) and 2.58 Log10(CFU/mL lavage fluid) and 1.00 Log10(CFU/mL lavage fluid)
- CFU/mL lavage fluid [8]: 55 CFU/mL lavage fluid and <5 CFU/mL lavage fluid and 5 CFU/mL lavage fluid
- Log10(CFU/mL lavage fluid) [8]: 1.74 Log10(CFU/mL lavage fluid) and <0.70 Log10(CFU/mL lavage fluid) and 0.70 Log10(CFU/mL lavage fluid)
- CFU/mL lavage fluid [9]: <5 CFU/mL lavage fluid and 30 CFU/mL lavage fluid and 5 CFU/mL lavage fluid
- Log10(CFU/mL lavage fluid) [9]: <0.70 Log10(CFU/mL lavage fluid) and 1.48 Log10(CFU/mL lavage fluid) and 0.70 Log10(CFU/mL lavage fluid)
- CFU/mL lavage fluid [10]: <5 CFU/mL lavage fluid
- Log10(CFU/mL lavage fluid) [10]: <0.70 Log10(CFU/mL lavage fluid)
- CFU/mL lavage fluid [11]: 390000 CFU/mL and 85000 CFU/mL and 46000 CFU/mL and 59000 CFU/mL and 77000 CFU/mL
- Log10(CFU/mL lavage fluid) [11]: 5.59 Log10(CFU/mL lavage fluid) and 4.93 Log10(CFU/mL lavage fluid) and 4.66 Log10(CFU/mL lavage fluid) and 4.77 Log10(CFU/mL lavage fluid) and 4.89 Log10(CFU/mL lavage fluid)
- CFU/mL lavage fluid [12]: 64000 CFU/mL and 520000 CFU/mL and 61000 CFU/mL and 80000 CFU/mL and 103000 CFU/mL
- Log10(CFU/mL lavage fluid) [12]: 4.81 Log10(CFU/mL lavage fluid) and 5.72 Log10(CFU/mL lavage fluid) and 4.79 Log10(CFU/mL lavage fluid) and 4.9 Log10(CFU/mL lavage fluid) and 5.01 Log10(CFU/mL lavage fluid)
- CFU/mL lavage fluid [13]: 47000 CFU/mL and 64000 CFU/mL and 4900 CFU/mL and 1450 CFU/mL and 20400 CFU/mL
- Log10(CFU/mL lavage fluid) [13]: 4.67 Log10(CFU/mL lavage fluid) and 4.81 Log10(CFU/mL lavage fluid) and 3.69 Log10(CFU/mL lavage fluid) and 3.16 Log10(CFU/mL lavage fluid) and 4.31 Log10(CFU/mL lavage fluid)
